The source of these data is patent US20260192003A1, “CHELATING COMPOUNDS AND METHODS OF USES THEREOF” (THE REGENTS OF THE UNIVERSITY OF CALIFORNIA, priority 2023, published 2026).

Data set [1] can be described thus: Arsenazo III dye displacement, indirect kinetics of Th^4+ complexation. Format: physicochemical. The conditions noted are these: for k2: 5 μM Th^4+, 25 μM Arsenazo III, 75 μM ligand (15 equiv.), 100 mM HEPES (pH 7.4), 25° C. The procedure:
Another important aspect of chelators for radiopharmaceutical applications is the kinetics of complexation with the radiometal of interest. A ligand must be able to bind the radioactive metal ion rapidly and completely to minimize the extent of radioactive decay before administration in vivo. […] To access the suitability of DOTHOPO and MeDOTHOPO in this context, we sought to determine the kinetics of Th^4+ complexation of these chelators in aqueous solution at 25° C. […] Following literature precedent,^35 the relative rate of metal complexation by these ligands could be studied indirectly using the dye Arsenazo III, which forms highly colored complexes with Th^4+ with a prominent absorbance band at 669 nm.^92 The addition of excess chelator to solutions of Th^4+ and Arsenazo III caused the dye to be displaced and the formation of the metal-chelator complex could be monitored by the disappearance of the absorbance features corresponding to the metal-dye compound (FIG. 4).
The aim of these experiments was to determine a second-order rate constant for the complexation reaction of Th^4+ by DOTHOPO and MeDOTHOPO. […] For comparison purposes, the second-order rate constant of complexation was calculated using the reaction of 15 equiv. of ligand relative to metal (Table 4, see SI for details). The [ThL] (L=DOTHOPO, MeDOTHOPO) complexes form rapidly in aqueous solution. The second-order halflives, calculated for 10 μM each of metal and ligand, are 30 and 18 min for DOTHOPO and MeDOTHOPO respectively. The faster complexation kinetics of MeDOTHOPO compared to DOTHOPO can likely be attributed to the increased flexibility of the ligand.

For data set [2] the following is noted: previous work, similar conditions, room temperature, after 2 months; cited from earlier work.
Data set [3] can be described thus: UV-vis spectrophotometric titration, cumulative formation constants and pM with Zr^4+. Format: physicochemical. Conditions: 25° C., I = 0.1M KCl; for pM, Zr^4+: pM = -log[M]free, [M]tot = 10^−6M, [L]tot = 10^−5M, pH 7.4, MeDOTHOPO predicted from Table 2 log β. From the text:
(§1) We next sought to evaluate the thermodynamic stabilities of the Zr^4+ and Th^4+ complexes of DOTHOPO and MeDOTHOPO by measuring their cumulative formation constants (log βmlh, see Supplementary Information for details). […] Above pH 10, the complexes dissociate to yield the free ligand and metal-hydroxide species, which could be leveraged to determine the stability constants of the Zr^4+ and Th^4+ complexes via UV-vis spectrophotometric titrations (FIGS. 2 and 3). […] The pH dependent species distribution diagrams for DOTHOPO with Zr^4+ and Th^4+ are provided in the Supporting Information. Importantly, the metal remains completely bound by the chelator below pH 10 and the major species present at pH 7.4 is the 1:1 ML complex for both metals. […] As such, the log βmlh values of MeDOTHOPO with Zr^4+ and Th^4+ were predicted to be ≥51 and ≥53, respectively, using Hyss (Table 2).
(§2) The log βmlh values reported above are pH-independent absolute stability constants. Because these ligands have differing pKa values, competition between H^+ and the metal of interest under different pH conditions will give rise to different pH-dependent conditional stability constants that are not accurately described by log βML values. To mitigate this issue and allow for direct comparison between ligands, we calculated the pM values (pM=−log[Mfree], where Mfree=solvated metal ions free of complexation by ligand or hydroxide when [L]=10^−5 M and [M]=10^−6 M)^85 for each ligand with the Fe^3+, Zr^4+, and Th^4+ (Table 3).

A short description of data set [4]: Potentiometric titration, protonation constants (pKa). Format: physicochemical. Conditions: for ΣpKa: sum of the pKa values tentatively assigned to protonation of the HOPO units. As for the experimental part:
The protonation constants (pKa) of the synthesized ligands were determined potentiometrically in 0.1 M KCl. […] Based on previous studies involving ligands bearing the tetraazacyclododecane backbone,^80-82 the remaining two pKa values likely correspond to protonation of two of the amine groups present in the macrocycle (Table 1). The 1,2-HOPO donors of MeDOTHOPO are approximately 1 pKa unit more basic than those of 3,4,3-LI-(1,2-HOPO) or DOTHOPO.

Data set [5] in a line: Spectrophotometric titration, cumulative formation constants and pM with Fe^3+. The conditions noted are these: 25° C., I = 0.1M KCl; for pM, Fe^3+: pM = -log[M]free, [M]tot = 10^−6M, [L]tot = 10^−5M, pH 7.4. Format: physicochemical. The procedure:
The affinity of these ligands for Fe3+ was explored as a representative endogenous metal that could compete with Th^4+ in vivo. The stability constants of DOTHOPO and MeDOTHOPO with Fe^3+ were determined by incremental spectrophotometric titrations, similar to those described for Zr^4+ and Th^4+ in the Supporting Information.
as §2

Data set [6] is described as follows: UV-vis spectrophotometric titration, cumulative formation constants and pM with Th^4+. Format: physicochemical. Conditions: 25° C., I = 0.1M KCl; for pM, Th^4+: pM = -log[M]free, [M]tot = 10^−6M, [L]tot = 10^−5M, pH 7.4, MeDOTHOPO predicted from Table 2 log β.
From the text: as §1, §2

For data set [7] the following is noted: 25° C., I = 0.1M KCl; reference 48; cited from earlier work.
The conditions of data set [8]: cited from earlier work.
For data set [9] the following is noted: cited from earlier work. This is another data set of the same source.
The conditions of data set [10]: 25° C., I = 0.1M KCl; reference 48; cited from earlier work. The source holds these as a separate data set.
Where [11] appears, read: 25° C., I = 0.1M KCl, reference 48.
The mark [12] stands for this setting: 25° C., I = 0.1M KCl, data taken from Ref. 48.

Molecules are shown by their SMILES. Where two headings read alike, the source gives them in different places. Marks after values point to notes of the source that are not given here. Some results are limits rather than exact numbers.

In the case of `O=C(O)CN1CCN(CC(=O)O)CCN(CC(=O)O)CCN(CC(=O)O)CC1` [DOTA, 1,4,7,10-tetraazacyclododecane-N,N′,N″,N″-1,4,7,10-tetraacetic acid, reference compound], the “complexation of Th^4+ (Arsenazo III displacement)” value in data set [1] (over 24 h at 25° C.) is listed as “did not show any complexation”. For the same molecule, in data set [2], the “displacement of Arsenazo III from Th^4+” value is given as “does not displace Arsenazo III”.

`O=C(c1cccc(=O)n1O)N1CCN(C(=O)c2cccc(=O)n2O)CCN(C(=O)c2cccc(=O)n2O)CCN(C(=O)c2cccc(=O)n2O)CC1` [DOTHOPO]: in data set [3], the “log βmih, Zr^4+, [ZrLH]^+” value is recorded as 47.0(6); the “log βmih, Zr^4+, [ZrL]” value is 42.9(4); the “pM, Zr^4+” value is recorded as 43.7. Besides, the k2 in data set [1] was 54.2 ± 2.8 M⁻¹ s⁻¹. Besides, in data set [4] (25° C., I = 0.1M KCl, n = 5), the pKa1 is listed as 6.43(9), the pKa2 was 5.46(1), the pKa3 was 5.05(3) and the pKa4 is listed as 4.28(6). The molecule further gave a ΣpKa in [4] of 21.34. In data set [5], the “log βmih, Fe^3+, [FeLH]” value was 33.3(6); the “log βmih, Fe^3+, [FeL]^−” value is recorded as 27.8(4); the “pM, Fe^3+” value came to 28.7. Further, in [6], the “log βmih, Th^4+, [ThLH]^+” value is on record as 38.5(1); the “log βmih, Th^4+, [ThL]” value was 34.4(1); the “pM, Th^4+” value is 35.3.

For `O=C(O)CN(CCN(CC(=O)O)CC(=O)O)CCN(CC(=O)O)CC(=O)O` [DTPA, reference compound], in [1], the k2 was determined as 7.9 ± 0.9 M⁻¹ s⁻¹.

For `Cn1ccc(C(=O)NCCN(CCNC(=O)c2ccn(C)c(=O)c2O)CCC(Cc2ccc(NC(=O)CCC(=O)O)cc2)N(CCNC(=O)c2ccn(C)c(=O)c2O)CCNC(=O)c2ccn(C)c(=O)c2O)c(O)c1=O` (centres unmarked) [L1], the “pM, Zr^4+” value in [3] is on record as 42.9. Moreover, in data set [7], the “log βmih, Zr^4+, [ZrLH]^+” value is reported as 50.6(2) and the “log βmih, Zr^4+, [ZrL]” value is on record as 44.7(1). In addition, the “pM, Fe^3+” value in data set [5] is on record as 25.1. Also, in data set [6], the “pM, Th^4+” value is 39.9. Besides, in data set [8] (setting [11]), the “log βmih, Th^4+, [ThH−1L]^2−” value was 32.4(4); the “log βmih, Th^4+, [ThLH]” value is on record as 45.9(4); the “log βmih, Th^4+, [ThL]^−” value is on record as 41.7(3). Moreover, the “log βThL” value in data set [8] (background, literature value) is 41.72. Moreover, in [9] (setting [12]), the pKa1 was 2.93(35), the pKa2 is 4.39(8)^c, the pKa3 is reported as 4.73(34) and the pKa4 is 5.97(14). In data set [9] (setting [12]), the pKa5 is reported as 6.90(5), the pKa6 is 7.74(6) and the pKa7 is reported as 9.58(16). Also, the ΣpKa in data set [9] (sum of the pKa values assigned to the HOPO units, Ref. 48) is recorded as 21.99. In [10], the “log βmih, Fe^3+, [FeLH]” value is on record as 31.2(4) and the “log βmih, Fe^3+, [FeL]^−” value is 26.9(3).

With `O=c1cccc(CN2CCN(Cc3cccc(=O)n3O)CCN(Cc3cccc(=O)n3O)CCN(Cc3cccc(=O)n3O)CC2)n1O` [MeDOTHOPO, 1,4,7,10-tetraazacyclododecane-1,4,7,10-tetra(methylene)tetrakis(1-hydroxy-2-pyridinone)], the “pM, Zr^4+” value in [3] is reported as >46^b. For the same molecule, the k2 in data set [1] was found to be 89.2 ± 8.5 M⁻¹ s⁻¹. Besides, in data set [4] (25° C., I = 0.1M KCl, n = 5), the pKa1 is 10.52(6), the pKa2 is reported as 9.1(2), the pKa3 is 7.79(8) and the pKa4 was 6.63(3). For the same molecule, in [4] (25° C., I = 0.1M KCl, n = 5), the pKa5 was 6.06(3) and the pKa6 is given as 4.41(6). The ΣpKa in [4] is on record as 24.96. For the same molecule, in [5], the “log βmih, Fe^3+, [FeLH]” value is listed as 39.5(4); the “log βmih, Fe^3+, [FeL]^−” value is 30.3(2); the “pM, Fe^3+” value was 27.6. The “pM, Th^4+” value in [6] is on record as >48^b.
